Experimental data as given in publication PMC5118688 (Scientific Reports, 2016).
In brackets after ≈: the same amount, converted by molar mass. Read-outs that look alike come from different tables or passages of the source.

Experiments:
mAb3C9 [1] = assay: mimotope-based dcELISA (mAb3C9 and M20-GST-BAD/SA-HRP competitor); type: binding, mouse; settings: for CR (%): M20-GST-BAD, (IC50 of parathion-methyl/IC50 of pesticide) × 100
Description: To develop a mimotope-based dcELISA, the biotinylated mimotope fusion protein was firstly assembled with streptavidin-HRP conjugate (SA-HRP) utilized the high affinity of biotin and streptavidin. The assembly process was just mixing a certain amount of biotinylated mimotope fusion protein with SA-HRP and incubating them at 4 °C overnight before use as an HRP-labeled competitor.
An innovative mimotope-based dcELISA was developed and performed as below. […] TMB solution (100 μL/well) was added and incubated for 15 min at 37 °C.
The optimal condition for mimotope-based dcELISA was optimized as chemosynthesized antigen-based dcELISA. The selectivity and sensitivity of the developed mimotope-based dcELISA for the 24 OPs were also determined under the optimum condition.

mAb4D11 = assay: optimized mAb4D11-based dcELISA
Description: (§1) The dcELISA procedure was performed as below. First, the plate (Costar, Corning Inc., New York, USA) was coated with coating antigen (100 μL/well in 1 × PBS) for 1 h at 37 °C. Then, the wells were washed four times with PBST (1 × PBS with 0.05% (v/v) Tween-20) and blocked with 2% skim milk (200 μL/well) for 1 h at 37 °C. After washing four times, 50 μL analyte in MeOH-water solution and 50 μL mAb-HRP in PBS were added. The plate was incubated for 1 h at 37 °C and then washed four times before adding TMB solution (100 μL/well). After incubation for 15 min at 37 °C, 50 μL/well of H2SO4 (2 mol/L) was added to stop the reaction, and the absorbance was recorded at 450 nm using the Model 680 plate reader (Bio-Rad, USA).
(§2) 18 kinds of O,O-dimethyl OPs and 6 kinds of O,O-diethyl OPs were purchased from National Standards of China and used for the selectivity and sensitivity study using the optimized dcELISA procedure. […] The IC50 value and detection limit of each OP were calculated. The CR value, which was used to evaluate the selectivity of the method, was calculated using the following equation:

mAb3C9 [2] = assay: optimized chemosynthesized antigen-based dcELISA (mAb3C9 and hapten 6-OVA); settings: for CR (%): Hapten 6-OVA, (IC50 of parathion-methyl/IC50 of pesticide) × 100
Description: as §1, §2

[3] = ref Hua et al. 11; cited from earlier work
[4] = system: mAb against a generic hapten (3-(4-dimethoxyphosphorothioyloxy phenyl)propanoic acid); settings: ref Liu et al. 10; cited from earlier work
[5] = ref Liang et al. 9; cited from earlier work
[6] = mAb3C9, coating antigen Hapten 6-OVA

| Structure (SMILES) | CR (%) (mAb3C9 [1]) | LOD (IC10) (mAb3C9 [1]; mAb3C9, M20-GST-BAD) [µg/mL] | IC50 ± SD (mAb3C9 [1]; mAb3C9, competitor M20-GST-BAD) [µg/mL] | CR (%) (mAb4D11; mAb4D11-based dcELISA) | IC50 (mAb4D11; mAb4D11-based dcELISA) [µg/mL] | CR (%) (mAb3C9 [2]) | LOD (IC10) (mAb3C9 [2]; mAb3C9, Hapten 6-OVA) [µg/mL] | IC50 ± SD (mAb3C9 [2]; [6]) [µg/mL] | IC50 [3] [µg/mL] | LOD (mAb4D11; mAb4D11-based dcELISA) [ng/mL] | IC50 [4] [µg/mL] | IC50 ± SD (mAb3C9 [1]) [µg/mL] | LOD (IC10) (mAb3C9 [1]) [µg/mL] | CR (%) (mAb4D11) | IC50 (mAb4D11) [µg/mL] | IC50 ± SD (mAb3C9 [2]) [µg/mL] | LOD (IC10) (mAb3C9 [2]) [µg/mL] | IC50 [5] [µg/mL] |
| --- | --- | --- | --- | --- | --- | --- | --- | --- | --- | --- | --- | --- | --- | --- | --- | --- | --- | --- |
| CCOP(=S)(OCC)SCn1nnc2ccccc2c1=O [Azinphos-ethyl] | 4.7 | 0.0264 | 0.1074 ± 0.0032 (≈ 0.311 µM) | < 0.3 | > 5 | 4.9 | 0.0216 | 0.0953 ± 0.0042 (≈ 0.276 µM) | – | – | – | – | – | – | – | – | – | – |
| COP(=S)(OC)SCn1nnc2ccccc2c1=O [Azinphos-methyl] | 290.8 | 0.0004 | 0.0017 ± 0.0001 (≈ 0.00536 µM) | < 0.3 | > 5 | 306.6 | 0.0004 | 0.0015 ± 0.0001 (≈ 0.00473 µM) | > 100 | – | – | – | – | – | – | – | – | – |
| COP(=S)(OC)Oc1cc(Cl)c(Br)cc1Cl [Bromophos-methyl] | 6.2 | 0.0194 | 0.0822 ± 0.0024 (≈ 0.225 µM) | 11.6 | 0.1246 (≈ 0.34 µM) | 6.2 | 0.0195 | 0.0755 ± 0.0041 (≈ 0.206 µM) | – | 31.4 | – | – | – | – | – | – | – | – |
| COP(=S)(OC)Oc1nc(Cl)c(Cl)cc1Cl [Chlorpyrifos-methyl] | 122.8 | 0.0009 | 0.0041 ± 0.0002 (≈ 0.0127 µM) | 59.4 | 0.0244 (≈ 0.0757 µM) | 120.7 | 0.0007 | 0.0039 ± 0.0001 (≈ 0.0121 µM) | > 100 | 5.7 | 0.81 (≈ 2.51 µM) | – | – | – | – | – | – | – |
| COP(=S)(OC)Oc1ccc(C#N)cc1 [Cyanophos] | 146.2 | 0.0007 | 0.0035 ± 0.0001 (≈ 0.0144 µM) | 82.5 | 0.0176 (≈ 0.0724 µM) | 152.8 | 0.0006 | 0.0031 ± 0.0002 (≈ 0.0127 µM) | 0.0203 (≈ 0.0835 µM) | 2.3 | – | – | – | – | – | – | – | – |
| CCOP(=S)(OCC)Oc1cc(C)nc(C(C)C)n1 [Diazinon] | 0.2 | 0.4123 | 2.0648 ± 0.0417 (≈ 6.78 µM) | 5.0 | 0.2883 (≈ 0.947 µM) | 0.3 | 0.3917 | 1.8124 ± 0.0461 (≈ 5.95 µM) | – | 73.2 | – | – | – | – | – | – | – | – |
| COP(=O)(OC)OC=C(Cl)Cl [Dichlorvos] | 3.5 | 0.0312 | 0.1454 ± 0.0038 (≈ 0.658 µM) | 0.8 | 1.8279 (≈ 8.27 µM) | 3.5 | 0.024 | 0.1321 ± 0.0061 (≈ 0.598 µM) | > 100 | 437.2 | – | – | – | – | – | – | – | – |
| CNC(=O)CSP(=S)(OC)OC [Dimethoate] | 2.7 | – | – | – | – | 2.7 | – | – | – | – | – | 0.1893 ± 0.0081 (≈ 0.826 µM) | 0.0284 | < 0.3 | > 5 | 0.1703 ± 0.0073 (≈ 0.743 µM) | 0.0184 | – |
| CCOP(=S)(Oc1ccc([N+](=O)[O-])cc1)c1ccccc1 (stereo not shown) [EPN] | – | – | – | – | – | – | – | – | 0.0183 (≈ 0.0566 µM) | – | – | – | – | – | – | – | – | – |
| COP(=S)(OC)Oc1ccc(S(=O)(=O)N(C)C)cc1 [Famphur] | 339.6 | 0.0004 | 0.0015 ± 0.0001 (≈ 0.00461 µM) | 4.2 | 0.3464 (≈ 1.06 µM) | 347.8 | 0.0003 | 0.0013 ± 0.0001 (≈ 0.004 µM) | 58.2157 (≈ 179 µM) | 80.3 | – | – | – | – | – | – | – | – |
| COP(=S)(OC)Oc1cc(Cl)c(Cl)cc1Cl [Fenchlorphos] | 10.1 | 0.0093 | 0.0501 ± 0.0021 (≈ 0.156 µM) | 26.4 | 0.055 (≈ 0.171 µM) | 10.5 | 0.0074 | 0.0443 ± 0.0022 (≈ 0.138 µM) | – | 13.3 | – | – | – | – | – | – | – | – |
| COP(=S)(OC)Oc1ccc([N+](=O)[O-])c(C)c1 [Fenitrothion] | 104.1 | 0.0012 | 0.0049 ± 0.0002 (≈ 0.0177 µM) | 180.2 | 0.0081 (≈ 0.0292 µM) | 107.1 | 0.0011 | 0.0044 ± 0.0003 (≈ 0.0159 µM) | 0.0089 (≈ 0.0321 µM) | 1.2 | 3.54 (≈ 12.8 µM) | – | – | – | – | – | – | 0.324 (≈ 1.17 µM) |
